Data set [1] relates to S180 sarcoma cells. As to the kind of experiment: growth of transplanted S180 sarcoma in mice. The class given is in vivo, BALB/c mice. Particulars: 20mg/kg i.p. once per day from the day after transplanting. The procedure:
(§1) Intraperitoneal injection, once per day. […] Treatment of all groups with testing substance lasted for 30 days or until the animal died unless otherwise specified.
The mice were killed by cervical vertebra dislocation. Vigorously growing and non-disrupted tumor masses were harvested and washed clean with sterile saline. The tissue was dispersed in saline to a homogenous cell suspension, in a ratio of 1 g tissue to 4 ml saline. […] Administration of test substance treatment started as described in section Method 1.
After the phagocytosis index study, the mice were killed by cervical vertebra dislocation. The liver, spleen, and cancer tissue were dissected, blotted dry, and weighed.

Data set [2] relates to L1210 leukemia. As to the kind of experiment: survival of mice with transplanted L1210 leukemia. The class given is in vivo, DBA/2 mice. As to conditions: 20mg/kg i.p. once per day from the day after transplanting, Kaplan-meier mean.
From the text: as §1
The mice were then killed by cervical vertebra dislocation and their ascitic fluid collected aseptically. […] Treatment started in the testing animals as described in section Method 1. Mean survival day was obtained by the Kaplan-meier method in the Survival option of the SPSS software. If the animal survived longer than the experiment, the survival days was entered as the duration of the experiment.

Data set [3] deals with ascitic fluid type liver cancer H22. As to the kind of experiment: survival of mice with transplanted ascitic fluid type liver cancer H22. The class given is in vivo, BALB/c mice. As to conditions: 20mg/kg i.p. once per day from the day after transplanting, Kaplan-meier mean. Here is the method:
Intraperitoneal injection, once per day. […] The cyclophosphamide groups were treated on the next day after transplanting the cancer cells. Treatment of all groups with testing substance lasted for 30 days or until the animal died unless otherwise specified.
Stock H22 cells were incubated in DMEM/F12 medium supplemented with 10% fetal bovine serum, 37°C/5%CO2 for 72 hrs, then washed 3-4 times with Hank's solution at room temperature. Adjust cell concentration to 1-2 x 10^9 per litre with Hank's solution. 0.2ml of the cell suspension was implanted to the abdominal cavity of several BALB/c mice for 6-8 days. The mice were killed by cervical vertebra dislocation. Ascitic fluid of the mice was collected asceptically and the cell concentration adjusted to 1 x 10^6 per ml with Hank's solution. 0.2ml of the cell suspension was implanted into the abdominal cavity of healthy mice to generate the H22 carrying mouse model for ascitic fluid type liver cancer. Administration of test substance started as described in section Method 1. Survival data of the mice was recorded. If the animal survived longer than the experiment, the survival days was recorded as the duration of the experiment. […] The survival index was calculated according to the following formula: Survival index = (mean survival days of treatment group-mean survival days of control group)ömean survival days of control group x 100% [formula]

Data set [4] has as its system Masugi nephritis rat model. Nature of the data set: Masugi nephritis rat model. Particulars: peptides 50µg/kg/day. The class given is in vivo, Sprague Dawley (SD) rats. From the text: The anti-serum was then exuded and isolated.
Whole blood was collected from 15 healthy SD rats.
3. […] Treatment started on the day of induction.
4. […] Adequate drinking water was supplied.

In the case of `O=P1(N(CCCl)CCCl)NCCCO1` (centres unmarked) [Cyclo-phos phamide, Cyclophosphamide], in data set [1], the Tumor weight worked out at 0.68 ± 0.32 g. The Survival days in data set [2] came out at 24.0 ± 5.3 days; in data set [3], 24.7 ± 10.2 days.

Regarding `C[C@]12CCC(=O)C=C1CC[C@@H]1[C@@H]2[C@@H](O)C[C@@]2(C)[C@H]1CC[C@]2(O)C(=O)CO` [hydrocortisone, Hydrocortisone], the “spleen index (mean spleen weight / mean body weight)” value in data set [4] (after three weeks of treatment, hydrocortisone 3.3mg/kg/day (halved after first week) i.p.) is on record as 4.5±1.4 x10-3. Also, in data set [4] (nephritis rats, hydrocortisone 3.3mg/kg/day i.p.), the growth rate entry is on record as “slower growth rate than normal”.

The values above are taken from EP1790655B1, “Biologically active peptides” (CMS Peptides Patent Holding Company Limited, priority 2001, dated 2003).
